Patent US20120308608A1 (priority 2011, published 2012)
Entries after “also recorded” stand apart in the source; their conditions may differ.

Legend:
[1] = tested on: IFN beta promoter (MDCK-IFNb-Luc); format: cell-based, canine
Influenza A/WSN/33 virus = format: cell-based
[2] = target: influenza virus replication machinery (PB1, PB2, PA, nucleocapsid protein of A/WSN/33) (Influenza A virus, UniProt P03427+P03430+P15659+P15682); test: Influenza virus mini-genome assay; format: cell-based, influenza virus strains A/WSN/33; conditions: A549 cells; increasing ASN2 concentrations
[3] = tested on: IFN production by MDCK cells; format: cell-based, canine
[4] = tested on: Influenza A/Vietnam/1203/2004 (H5N1) virus; format: cell-based; conditions: A549 cells; multiplicity of 0.01 pfu; 2 days
[5] = tested on: Influenza A/PR/8/34 virus; format: cell-based

N=C(N/N=C1/C(=O)N(Cc2ccccc2)c2ccccc21)SCC(=O)Nc1ccccc1 [ASN2]
induction of IFNb-luc reporter expression [1]: requires virus infection in order to induce IFN in the reporter assay; also recorded: depends on influenza A/PR/8/34 virus infection to induce IFN | A/WSN/33 virus replication (HA titer) (Influenza A/WSN/33 virus): able to attenuate both A/PR/8/34 and A/WSN/33 virus replication in a dose-dependent manner; also recorded: attenuated | mini-genome luciferase activity [2]: decreased with increasing concentrations; also recorded: inhibited | IFN production (IFN bioassay, VSV-GFP growth) [3]: able to induce biologically relevant levels of IFN once the Compound-treated cells are also infected with A/PR/8/34; also recorded: able to induce the production of IFN only if the treated cells are infected with influenza A/PR/8/34 virus | A/Vietnam/1203/2004 (H5N1) virus replication [4]: antiviral activity; also recorded: attenuated | A/PR/8/34 virus replication (HA titer) [5]: able to attenuate both A/PR/8/34 and A/WSN/33 virus replication in a dose-dependent manner; also recorded: attenuated

NS(=O)(=O)c1ccc2nc3c(nc2c1)-c1cccc2cccc-3c12 [ENA51]
induction of IFNb-luc reporter expression [1]: induces IFN independent of virus
